Data from patent US9669005B2, “Use of naringenin in preparing drugs for preventing and/or treatment abdominal aortic aneurysm” (priority 2013, dated 2017).

Columns and labels:
Assay type in all cases: in vivo
[1] = tested on: aortic aneurysms in angiotensin II induced ApoE knockout mice; assay: Formed aortic aneurysms, ApoE knockout mice, second round of angiotensin II submerging pump with naringenin gavage
Procedure: In addition, we used the method of angiotensin II subcutaneous submerging pump for 28 days (1,000 ng/kg/min), to induce abdominal aortic aneurysms on 20 weeks of male ApoE knockout mice (totally 40 mice) and used ultrasound to detect the diameters of the abdominal aortas. The diameter greater than 50% of diameter of adjacent blood vessel was used as a standard of the onset of an aortic aneurysm, and 28 mice suffered from aortic aneurysms 28 days later.
Angiotensin II submerging pump was continuously given to all the mice for 28 days. […] In the mice which had suffered from aortic aneurysms previously, 4 mice in the 14 mice by water gavage died from fracture of aortic aneurysms, the other 10 survived mice all suffered from serious aortic aneurysms (the average diameter reaches 3.00±0.58 mm).

[2] = Biochemical indexes, body weight and blood pressure of angiotensin II induced ApoE-/- mice; conditions: naringenin 50 mg/kg gavage 28 days
Procedure: Firstly, 16 weeks of male ApoE^−/− mice were randomly divided into two groups, control group (n=16) and naringenin group (n=15), respectively. And then they were anesthetized by 0.1% pentobarbital sodium, and mini pumps (model 2004, Alzet, Cupertino, Calif.) were subcutaneously submerged; angiotensin II (Sigma-Aldrich, St. Louis, Mo.) dissolved with normal saline was added to the pump, such that drugs can be continuously administrated for 4 weeks at a dosage of 1000 ng/kg/min. From the first day after surgery, gavage was daily performed to mice at constant time points, water gavage in control group, and naringenin gavage (50 mg/kg) in naringenin group. Materials were removed 28 days after gavage. Blood pressure of the mice was measured by tail cuff method with BP-89A sphygmomanometer (Beijing Softron Biotechnology Co., Ltd.), and the mice were weighted. Blood was drawn in inner canthus of the mice, and after centrifuged for 10 minutes at 6000 rotations, supernatant was removed and the blood fat levels of the mice were measured.

[3] = tested on: metalloproteinase; assay: In situ zymography, angiotensin II model; conditions: AngII ApoE-/- mice; naringenin gavage; FIG. 8A
Procedure: After the aortas of mice were perfused with PBS, fresh tissue was directly embedded with OCT, put in liquid nitrogen for freezing, and then continuously sliced. Firstly, washing was performed with PBS for 3 min, thrice. A fluorescently labeled DQ-gelation-FITC substrate (Sigma-Aldrich, St. Louis, Mo.) was incubated 1 hour at 37° C. Under normal circumstances, fluorescent label for the substrate was packaged, so there is no fluorescence; after activated gelatinase degraded gelatin, green fluorescent label would be exposed. After the section was incubated, washing was performed with PBS for 3 min, thrice, and then the section was sealed. Immunofluorescence confocal microscopy was used to irradiate. The stronger fluorescence was, which means, the stronger activity of matrix metalloproteinase was.

[4] = tested on: metalloproteinase NMP-9; assay: Gelatin zymography, ApoE knockout mice after second round of angiotensin II; conditions: abdominal aortas, naringenin gavage, FIG. 10D
Procedure: […] Blood vessels were cultured for 24 hours using 0.5 ml serum-free medium with high glucose. After the cultured supernatant protein was quantified, mercaptoethanol-free protein sample loading buffer was added, cryopreserved at −80° C. Water was used to prepare gelatin (Sigma-Aldrich, St. Louis, Mo.) into a concentration of 10 mg/ml, which was added to separation gel of protein electrophoresis according to the proportion of 1:10, causing the final concentration of gelatin as 1 mg/ml. Electrophoresis was performed in a voltage of 80V at 4° C. The gel was put into 0.25% Trixon-100 solution, and washing was performed twice in 30 minutes. And then the gelatin was added to incubation solution (50 mM Tris, 0.2M NaCl, 5 mM CaCl2, 0.02% sodium azide), incubated for 24-48 hours at 37° C. Incubated gel was put into Coomassie brilliant blue to stain for 1-2 hours at room temperature, washed for 30 minutes with a solution having 30% methanol and 10% glacial acetic acid, a solution having 20% methanol and 10% glacial acetic acid, and a solution having 10% methanol and 5% glacial acetic acid, respectively, and then analyzed with Odyssey infrared fluorescence scanning system (LI-COR Biosciences, Lincoln, Nebr.). Both NMP-2 and NMP-9 are gelatinases, and can degrade gelatin; the places where gelatin is degraded are white, and other places are still black. […]

[5] = tested on: formed arterial aneurysms in CaPO4 daubed C57 mice; assay: Formed abdominal aortic aneurysms, CaPO4 model, naringenin gavage from 7 days after daubing
Procedure: In CaPO4 model, we daubed CaPO4 at infrarenal abdominal aortas in 12-week old of male C57 mice (totally 36 mice), and arterial aneurysms were formed 7 days later. Next, the 36 mice were randomly divided into 2 groups: one group was given naringenin (50 mg/kg/day) gavage, and another group was given equal water gavage. Gavage was performed for 2 weeks (8 mice for each group) and 4 weeks (10 mice for each group), respectively.

[6] = AngII 1000 ng/kg/min ApoE-/- mice

O=C1C[C@@H](c2ccc(O)cc2)Oc2cc(O)cc(O)c21 [naringenin]
survival after the second round of angiotensin II ([1]; ApoE knockout mice with previously formed aneurysms, 14 mice, naringenin gavage, 4 of 14 died in water group): all normally survived | maximum diameter of the blood vessels (abdominal aorta, ultrasound) ([1]; ApoE knockout mice with previously formed aneurysms, naringenin gavage, second AngII round, water group 3.00±0.58): 1.62±0.45 mm | number of mice in which aortic aneurysms were observed ([1]; ApoE knockout mice with previously formed aneurysms, of 14 mice, naringenin gavage, second AngII round 28 days): 5 | incidence rate of aortic aneurysms ([1]; ApoE knockout mice without aneurysm after first AngII round, 6 mice, second AngII round 28 days with naringenin gavage, control 50%): 16% | Body weight [2, 6]: 28.9 ± 2.03 g | Cholesterol [2, 6]: 8.46 ± 2.45 mmol | High density lipoprotein [2, 6]: 56.5 ± 5.97 mg/deciliter | Low density lipoprotein [2, 6]: 44.1 ± 15.9 mg/deciliter | Triglyceride [2, 6]: 0.69 ± 0.35 mmol | Blood pressure ([2]; AngII 1000 ng/kg/min ApoE-/- mice, tail cuff method): 136.6 ± 14.27 mmHg | blood pressure and body weight ([2]; AngII ApoE-/- mice): does not have an effect | levels of cholesterol, triglyceride, and low density lipoprotein ([2]; AngII ApoE-/- mice): reduces | activated metalloproteinase (in situ zymography) [3]: significantly decreases | activity of metalloproteinase NMP-9 (gelatin zymography) [4]: significantly inhibit | average diameter of infrarenal abdominal aortas (ex vivo) ([5]; aneurysms formed 7 days after CaPO4, naringenin 50 mg/kg/day gavage 2 weeks, control 1.488±0.42, P<0.05): 0.884±0.33 mm | average diameter of infrarenal abdominal aortas (ex vivo) ([5]; aneurysms formed 7 days after CaPO4, naringenin 50 mg/kg/day gavage 4 weeks, control 1.718±0.64, P<0.05): 0.9935±0.5 mm
